The values that follow are results of earlier work, collected in the CATMoS acute toxicity set (Mansouri et al. 2021).

Where “and” joins values, the source holds several entries; their conditions need not be identical. Identical values can stand only once.

This data set can be described thus: rat acute oral toxicity. The settings on record: in vivo.
Turning to `NC(=O)ON=C1CSCCS1`, the LD50 was 52 mg/kg. Turning to `CC(O)C(Cl)(Cl)Cl` (configuration not stated), the LD50 is 1000 mg/kg.

As to `CC(C)(C)c1ccc2nc(C(F)(F)F)[nH]c2c1`, the median lethal dose (LD50) was 35 mg/kg.

Turning to `CC1(CCl)COC1`, the LD50 was 1120 mg/kg. Consider `CCOC(=O)C1(c2ccccc2)CCN(C)CC1`, for which the 50% lethal dose (LD50) was 170 mg/kg. Turning to `CCCCOC(=O)c1ccccc1Nc1cccc(C(F)(F)F)c1`, the LD50 was 510 mg/kg. Take `CCOC(=O)CC(SP(=O)(OC)OC)C(=O)OCC` (configuration not stated): the LD50 is 158 mg/kg. In the case of `CC(C)CCOC(=S)S`, the median lethal dose (LD50) was 765 mg/kg. On to `NCC1CC2CCC1C2` (configuration not stated), for which the LD50 was 1410 mg/kg. As to `CCC(=O)OCCOc1ccccc1`, the 50% lethal dose (LD50) is 4400 mg/kg.

With `O=C(CCl)CC(=O)Nc1ccccc1`, the LD50 is 1820 mg/kg.

For the compound `CCCCNCCC[Si](OC)(OC)OC`, the LD50 was 12800 mg/kg. For `CN1CC[C@@]23CCCC[C@@H]2[C@@H]1Cc1ccc(O)cc13`, the LD50 was 1100 mg/kg. `CCCCC(CC)COS(=O)(=O)O` (configuration not stated): the LD50 is 4120 mg/kg.

Regarding `CC(=O)C(c1ccccc1)N1CCN(CCOc2ccccc2)CC1` (configuration not stated), the LD50 was 800 mg/kg. Turning to `O=c1[nH]c2ccccc2n1C1CCN(CCCC(c2ccc(F)cc2)c2ccc(F)cc2)CC1`, the 50% lethal dose (LD50) is 1100 mg/kg. Turning to `CSCC(=O)N(C)C(=O)Oc1ccccc1OC(C)C`, the LD50 was 650 mg/kg.

`CCCCCCOC(=O)Oc1ccccc1C(=O)O`: the 50% lethal dose (LD50) is 3450 mg/kg. As to `C=CCON/C(CCC)=C1\C(=O)CC(C)(C)C(C(=O)OC)C1=O` (configuration not stated), the median lethal dose (LD50) was 2260 mg/kg. As to `CCCC(CCC)C(=O)O[C@H]1C[C@H]2CC[C@@H](C1)[N+]2(C)C`, the LD50 is 705 mg/kg. Regarding `CCCCC(C)=O`, the LD50 was 2590 mg/kg. With `Cc1cnccn1`, the LD50 was 1800 mg/kg. `O=S(=O)(O)Oc1ccc(C(c2ccc(OS(=O)(=O)O)cc2)c2ccccn2)cc1`: the LD50 is 11300 mg/kg. As to `CCC(C)C(C(=O)OCC[N+](C)(CC)CC)c1ccccc1` (configuration not stated), the LD50 is 1260 mg/kg. Turning to `C=C(Cl)c1ccc([N+](=O)[O-])cc1`, the 50% lethal dose (LD50) was 710 mg/kg.

As for `CCCCOC(=O)c1ccccc1C(=O)OCCOCCOC(=O)c1ccccc1C(=O)OCCCC`, the median lethal dose (LD50) is 11000 mg/kg. `Nc1ccc(O)c2c1C(=O)c1c(N)c(Br)cc(O)c1C2=O`: the median lethal dose (LD50) was 12500 mg/kg.

Turning to `CNC(=O)Oc1ccccc1OC(CCl)OC` (configuration not stated), the LD50 was 35.4 mg/kg. Take `Brc1ccc2[nH]cc(CC3CCNCC3)c2c1`: the LD50 is 25 mg/kg. Regarding `CN1CCCN(C(c2ccccc2)c2ccc(Cl)cc2)CC1` (configuration not stated), the LD50 is 490 mg/kg. As for `CCCCCCCCCc1cc(C)cc(Cc2cc(C)cc(CCCCCCCCC)c2O)c1O`, the LD50 was 33000 mg/kg. Regarding `COCCNC(=O)c1nc2c(N)nc(-c3ccccc3)nc2nc1NCCOC`, the LD50 was 5010 mg/kg. Take `C=CCn1ccc(=O)c(O)c1C`: the LD50 is 800 mg/kg. Consider `CCN(C(C)C)C(C)C`, for which the LD50 is 317 mg/kg. As for `Nc1c(Cl)cc(C(=O)NC2CC2)cc1Cl`, the LD50 is 170 mg/kg.

`Cn1c2c(c3ccc(N)cc31)CCCC2`: the LD50 is 705 mg/kg. Take `CC(=O)CCc1ccccc1`: the LD50 was 3200 mg/kg. Regarding `CCOP(=S)(OCC)SCC(=O)OC`, the LD50 was 1000 mg/kg. Take `Cc1cc(C2(c3ccc(O)c(C)c3)C(=O)Nc3ccccc32)ccc1O`: the median lethal dose (LD50) is 520 mg/kg. For the compound `CCOP(=S)(OCC)SCSC(=S)N(C)C`, the LD50 was 150 mg/kg.

Turning to `C=CCc1ccc(OC(C)=O)c(OC)c1`, the LD50 was 1670 mg/kg.

As to `CCOC(=O)N(Cc1ccccc1)C1CC1`, the median lethal dose (LD50) is 1380 mg/kg.

Turning to `CN1CC(CCN2CC=C(c3ccccc3)CC2)OC1=O` (configuration not stated), the LD50 was 340 mg/kg. `CNc1ccc(C(O)(c2ccc(N(C)C)cc2)c2ccc(N(C)C)cc2)cc1`: the LD50 is 500 mg/kg.

Regarding `C=Cc1ccc(OC(C)=O)cc1`, the LD50 is 1500 mg/kg. In the case of `O=C1C(=NNc2ccccc2S(=O)(=O)O)C(S(=O)(=O)O)=Cc2cc(S(=O)(=O)O)cc(Nc3nc(Cl)nc(Nc4ccccc4)n3)c21`, the LD50 was 6730 mg/kg.

With `FC(F)(F)C(F)(F)OC(F)(F)C(F)(F)F`, the LD50 is 20000 mg/kg. Turning to `CCc1cc2c(s1)-n1c(C)nnc1CN=C2c1ccccc1Cl`, the LD50 was 3510 mg/kg.

Consider `Cc1ccc(N=c2sccn2C)c(C)c1`, for which the 50% lethal dose (LD50) was 725 mg/kg. For `CC=Cc1ccc(OCC)c(O)c1`, the LD50 is 2400 mg/kg. As to `CC(=S)Nc1ccccc1`, the LD50 was 2640 mg/kg. In the case of `CCNc1nc(NC(C)CC)nc(OC)n1` (configuration not stated), the median lethal dose (LD50) is 1000 mg/kg.

Take `CCN(COC(C)=O)N=O`: the LD50 is 810 mg/kg.

`c1ccc(C2(c3ccccc3)OCC(C3CCCCN3)O2)cc1` (configuration not stated): the LD50 was 310 mg/kg and 280 mg/kg.

As to `CC1(C)OCC(CO)O1` (configuration not stated), the median lethal dose (LD50) was 7000 mg/kg.

Consider `COc1ccc2c(c1)N(CCC1CCCCN1C)c1ccccc1S2` (configuration not stated), for which the 50% lethal dose (LD50) was 1130 mg/kg. On to `COc1cc2c3c(c4ccc(OC)c(OC)c4c2cc1OC)CN1CCCC1C3` (configuration not stated), for which the LD50 is 65 mg/kg.

For the compound `NC1=C(Cl)C(=O)c2ccccc2C1=O`, the LD50 is 1360 mg/kg.

Turning to `CCOC(=O)C1CCCCC1`, the LD50 is 3960 mg/kg. As to `CCN(CC)C(=O)[C@]1(c2ccccc2)C[C@@H]1CN`, the 50% lethal dose (LD50) is 213 mg/kg. `CCOC(=O)C(CCc1ccccc1)NC(C)C(=O)N1C(C(=O)O)CC2CCCCC21` (configuration not stated): the median lethal dose (LD50) is 2500 mg/kg. Take `Cc1nn(C)c(OCC(=O)c2ccccc2)c1C(=O)c1ccc(Cl)cc1Cl`: the 50% lethal dose (LD50) is 1640 mg/kg.

As usually defined, the LD50 is the dose at which mortality reaches 50%.
